Laboratory results: patent US20250177408A1, “INHIBITOR OF INTERACTION BETWEEN YAP/TAZ AND TEAD, PREPARATION THEREOF, PHARMACEUTICAL COMPOSITION THEREOF AND USE THEREOF” (ETERN BIOPHARMA (SHANGHAI) CO., LTD., priority 2022, published 2025)

Legend:
[1] = molecular target: YAP-TEAD protein interaction (His-TEAD1 (209-426) protein, Bio-YAP peptide (60-100)) (Homo sapiens, UniProt P28347); experiment: YAP-TEAD protein interaction HTRF experiment; format: binding; settings: His-TEAD1 (209-426) 10 nM, Bio-YAP peptide 50 nM, read-out: Activity of each compound in blocking YAP-TEAD protein interaction (grades of IC50 values)
Chain of YAP-TEAD protein interaction (His-TEAD1 (209-426) protein, Bio-YAP peptide (60-100)) (P28347 209-426): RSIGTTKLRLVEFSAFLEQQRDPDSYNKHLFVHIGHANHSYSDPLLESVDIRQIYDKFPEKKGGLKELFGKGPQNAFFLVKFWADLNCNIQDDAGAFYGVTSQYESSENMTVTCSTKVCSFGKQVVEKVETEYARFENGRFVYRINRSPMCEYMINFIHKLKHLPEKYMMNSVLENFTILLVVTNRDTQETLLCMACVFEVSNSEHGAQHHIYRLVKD
Method in brief: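 His-TEAD1 (209-426) at 10 nM final was preincubated 20 min at RT with compounds (10-point 3-fold dilutions, duplicates, 1% DMSO), then Bio-YAP peptide, 10 min. Anti-His-Eu cryptate/streptavidin-XL665 added for 1 h at RT; HTRF read at ex 320 nm, Em665/Em620 ratio ×10000, IC50 from % inhibition.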

MSTO-211H cells = experiment: Cell proliferation inhibition experiment (CellTiter-Glo); format: cell-based; settings: Homo sapiens, 96 hours, read-out: Inhibitory activity of each compound on the proliferation of MSTO-211H cells (grades of IC50 values)
Method in brief: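 MSTO-211H cells (1500/well, RPMI1640 + 10% FBS) were plated overnight at 37° C, 5% CO2, then exposed in duplicate to 9 three-fold compound dilutions (DMSO ≤0.5% final) for 96 hours. Viability was read as CellTiter-Glo luminescence after 10 min at room temperature. IC50 was derived from inhibition of the CTG signal.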

SMILES | IC50 [1] [nM] | IC50 (MSTO-211H cells) [nM]
Cn1cc2c(n1)COc1c-2cc(C(N)=O)c(-c2c(Cl)c(F)cc3c2C[C@](c2ccccc2)([C@@H]2CCC(=O)N2)O3)c1F (atropisomer, axis not shown) [Compound 115, (S)-7-((S)-5-Chloro-6-fluoro-2-((S)-5-oxopyrrolidin-2-yl)-2-phenyl-2,3-dihydrobenzofuran-4-yl)-6-fluoro-2-methyl-2,4-dihydrochromeno[3,4-c]pyrazole-8-carboxamide] | < 50 | 500 to 5000
CNC(=O)c1cc2c(c(F)c1-c1c(Cl)c(F)cc3c1C[C@](c1ccccc1)([C@@H]1CCCN1)O3)OCc1nn(C)cc1-2 (atropisomer, axis not shown) [Compound 39, (S)-7-((S)-5-Chloro-6-fluoro-2-phenyl-2-((S)-pyrrolidin-2-yl)-2,3-dihydrobenzofuran-4-yl)-6-fluoro-N,2-dimethyl-2,4-dihydrochromeno[3,4-c]pyrazole-8-carboxamide] | < 50 | < 200
NC(=O)c1cc2cccnc2c(F)c1-c1c(Cl)c(F)cc2c1C[C@](c1ccccc1)([C@@H]1CCCN1)O2 (atropisomer, axis not shown) [Compound 4, (S)-7-((S)-5-Chloro-6-fluoro-2-phenyl-2-((S)-pyrrolidin-2-yl)-2,3-dihydrobenzofuran-4-yl)-8-fluoroquinoline-6-carboxamide] | < 50 | < 200
[2H]c1c([2H])c([2H])c([C@]2([C@@H]3CCCN3)Cc3c(cc(F)c(Cl)c3-c3c(C(N)=O)cc4c(c3F)OCc3nn(C)cc3-4)O2)c([2H])c1[2H] (atropisomer, axis not shown) [Compound 116, (S)-7-((S)-5-Chloro-6-fluoro-2-(phenyl-d5)-2-((S)-pyrrolidin-2-yl)-2,3-dihydrobenzofuran-4-yl)-6-fluoro-2-methyl-2,4-dihydrochromeno[3,4-c]pyrazole-8-carboxamide] | < 50 | < 200
NC(=O)c1cc2c(c(F)c1-c1c(Cl)c(F)cc3c1C[C@](c1ccccc1)([C@@H]1CCCN1)O3)Oc1c(cn[nH]c1=O)O2 (atropisomer, axis not shown) [Compound 107, (S)-8-((S)-5-Chloro-6-fluoro-2-phenyl-2-((S)-pyrrolidin-2-yl)-2,3-dihydrobenzofuran-4-yl)-9-fluoro-1-oxo-1,2-dihydrobenzo[5,6][1,4]dioxo [2,3-d]pyridazine-7-carboxamide] | < 50 | < 200
NC(=O)c1cc2c(c(F)c1-c1c(Cl)c(F)cc3c1C[C@](c1ccccc1)([C@@H]1CCCN1)O3)Oc1cnn(CCF)c(=O)c1O2 (atropisomer, axis not shown) [Compound 119, (S)-8-((S)-5-Chloro-6-fluoro-2-phenyl-2-((S)-pyrrolidin-2-yl)-2,3-dihydrobenzofuran-4-yl)-9-fluoro-3-(2-fluoroethyl)-4-oxo-3,4-dihydrobenzo[5,6][1,4]dioxo[2,3-d]pyridazine-7-carboxamide] | < 50 | 200 to 500
NC(=O)c1cc2c(c(F)c1-c1c(Cl)c(F)cc3c1C[C@](c1ccccc1)([C@@H]1CCCN1)O3)Oc1cnn(CC(F)F)c(=O)c1O2 (atropisomer, axis not shown) [Compound 121, (S)-8-((S)-5-Chloro-6-fluoro-2-phenyl-2-((S)-pyrrolidin-2-yl)-2,3-dihydrobenzofuran-4-yl)-9-fluoro-3-(2,2-difluoroethyl)-4-oxo-3,4-dihydrobenzo[5,6][1,4]dioxo[2,3-d]pyridazine-7-carboxamide] | < 50 | 200 to 500
Cn1nc2c(cc1=O)Oc1cc(C(N)=O)c(-c3c(Cl)c(F)cc4c3C[C@](c3ccccc3)([C@@H]3CCCN3)O4)c(F)c1O2 (atropisomer, axis not shown) [Compound 122, (S)-8-((S)-5-Chloro-6-fluoro-2-phenyl-2-((S)-pyrrolidin-2-yl)-2,3-dihydrobenzofuran-4-yl)-9-fluoro-2-methyl-3-oxo-2,3-trihydrobenzo [5,6][1,4]dioxo [2,3-c]pyridazine-7-carboxamide] | < 50 | < 200
NC(=O)c1cc2c(c(F)c1-c1c(Cl)c(F)cc3c1C[C@](c1ccccc1)([C@@H]1CCCN1)O3)OCC21CCNCC1 (atropisomer, axis not shown) [Compound 44, (S)-6-((S)-5-Chloro-6-fluoro-2-phenyl-2-((S)-pyrrolidin-2-yl)-2,3-dihydrobenzofuran-4-yl)-7-fluoro-2H-spiro [benzofuran-3,4′-piperidine]-5-carboxamide] | 50 to 500 | > 5000
CNC(=O)c1cc2c(c(F)c1-c1c(Cl)c(F)cc3c1C[C@](c1ccccc1)([C@@H]1CCCN1)O3)Oc1cnn(C)c(=O)c1O2 (atropisomer, axis not shown) [Compound 125, (S)-8-((S)-5-Chloro-6-fluoro-2-phenyl-2-((S)-pyrrolidin-2-yl)-2,3-dihydrobenzofuran-4-yl)-9-fluoro-N,3-dimethyl-4-oxo-3,4-dihydroxybenzo[5,6][1,4]dioxo[2,3-d]pyridazine-7-carboxamide] | < 50 | < 200
Cn1ncc2c(c1=O)Oc1cc(C(N)=O)c(-c3c(Cl)c(F)cc4c3CC(c3ccccc3)(C3CCCN3)O4)c(F)c1O2 [Compound 106, (S)-8-((S)-5-Chloro-6-fluoro-2-phenyl-2-((S)-pyrrolidin-2-yl)-2,3-dihydrobenzofuran-4-yl)-9-fluoro-3-methyl-4-oxo-3,4-dihydrobenzo[5,6][1,4]dioxo[2,3-d]pyridazine-7-carboxamide] | < 50 | 200 to 500

Now from value to molecule, other results behind:

IC50 [1] [nM] | SMILES | IC50 (MSTO-211H cells) [nM]
< 50 | Cn1cnc2c(c1=O)Oc1c(cc(C(N)=O)c(-c3c(Cl)c(F)cc4c3CC(c3ccccc3)(C3CCCN3)O4)c1F)O2 [Compound 126, (S)-7-((S)-5-Chloro-6-fluoro-2-phenyl-2-((S)-pyrrolidin-2-yl)-2,3-dihydrobenzofuran-4-yl)-6-fluoro-3-methyl-4-oxo-3,4,7,8-tetrahydrobenzo[5,6][1,4]dioxo[2,3-d]pyrimidine-8-carboxamide] | < 200
< 50 | CCC(=O)N1CCOc2c1cc(C(N)=O)c(-c1c(Cl)c(F)cc3c1C[C@](c1ccccc1)([C@@H]1CCCN1)O3)c2F (atropisomer, axis not shown) [Compound I-29, (S)-7-((S)-5-Chloro-6-fluoro-2-phenyl-2-((S)-pyrrolidin-2-yl)-2,3-dihydrobenzofuran-4-yl)-8-fluoro-4-propionyl-3,4-dihydro-2H-benzo[b][1,4]oxazine-6-carboxamide] | 200 to 500
< 50 | Cn1ccc2c(c1=O)Oc1cc(C(N)=O)c(-c3c(Cl)c(F)cc4c3C[C@](c3ccccc3)([C@@H]3CCCN3)O4)c(F)c1O2 (atropisomer, axis not shown) [Compound 136, (S)-7-((S)-5-Chloro-6-fluoro-2-phenyl-2-((S)-pyrrolidin-2-yl)-2,3-dihydrobenzofuran-4-yl)-6-fluoro-2-methyl-1-oxo-1,2-dihydrobenzo[5,6][1,4]dioxo[2,3-c]pyridine-8-carboxamide] | < 200
< 50 | Cn1ncc2c(F)c(-c3c(Cl)c(F)cc4c3C[C@](c3ccccc3)([C@@H]3CCCN3)O4)c(C(N)=O)cc21 (atropisomer, axis not shown) [Compound I-28, (S)-5-((S)-5-Chloro-6-fluoro-2-phenyl-2-((S)-pyrrolidin-2-yl)-2,3-dihydrobenzofuran-4-yl)-4-fluoro-1-methyl-1H-indazole-6-carboxamide] | < 200
< 50 | NC(=O)c1cc2c(c(F)c1-c1c(Cl)c(F)cc3c1C[C@](c1ccccc1)([C@@H]1CCCN1)O3)Oc1c(cnn(CCC(F)(F)F)c1=O)O2 (atropisomer, axis not shown) [Compound 133, (S)-8-((S)-5-Chloro-6-fluoro-2-phenyl-2-((S)-pyrrolidin-2-yl)-2,3-dihydrobenzofuran-4-yl)-9-fluoro-2-(3,3,3-trifluoropropyl)-1-oxo-1,2-dihydrobenzo[5,6][1,4]dioxo[2,3-d]pyridazine-7-carboxamide] | < 200
< 50 | [2H]C1([2H])CC[C@]([2H])([C@@]2(c3ccccc3)Cc3c(cc(F)c(Cl)c3-c3c(C(=O)NC)cc4c(c3F)Oc3c(cnn(CC(F)F)c3=O)O4)O2)N1 (atropisomer, axis not shown) [Compound 156, (S)-8-((S)-5-Chloro-6-fluoro-2-phenyl-2-((S)-pyrrolidin-2-yl-2,5,5-d3)-2,3-dihydrobenzofuran-4-yl)-2-(2,2-difluoroethyl)-9-fluoro-N-methyl-1-oxo-1,2-dihydrobenzo[5,6][1,4]dioxo [2,3-d]pyridazine-7-carboxamide] | < 200
< 50 | CNC(=O)c1cc2c(c(F)c1-c1c(Cl)c(F)cc3c1C[C@](c1ccccc1)([C@@H]1CCCN1)O3)Oc1c(cnn(C3CC(F)(F)C3)c1=O)O2 (atropisomer, axis not shown) [Compound 148, (S)-8-((S)-5-Chloro-6-fluoro-2-phenyl-2-((S)-pyrrolidin-2-yl)-2,3-dihydrobenzofuran-4-yl)-2-(3,3-difluorocyclobutyl)-9-fluoro-N-methyl-1-oxo-1,2-dihydrobenzo [5,6][1,4]dioxo [2,3-d]pyridazine-7-carboxamide] | < 200
